This passage reports TGI results from PubChem BioAssay (NCI).

Structures are written as SMILES.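 Compound exposure: 48 hours, 5 concentrations, 96-well plates. TGI: total growth inhibition.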

Assay in all cases: inhibition of tumour cell growth, NCI panel, 48 h
Assay [1] concerns T-47D breast.
Assay [2] has as its system U251 CNS.
Assay [3] has as its system NCI-H460 lung.
Assay [4] deals with MDA-MB-435.
Assay [5] concerns HOP-62 NSCLC.
In assay [6] the test system is COLO 205 colon.
The test system of assay [7] is MDA-MB-231 breast.
Assay [8] concerns SR leukemia.
Assay [9] deals with SNB-75 CNS.
The subject of assay [10] is MCF7 breast.
The subject of assay [11] is SK-MEL-28 melanoma.
For assay [12], the system named is HCC-2998 colon.
Assay [13] relates to EKVX NSCLC.
Assay [14] concerns OVCAR-5 ovarian.
Assay [15] deals with SF-268 CNS.
The test system of assay [16] is SNB-19 CNS.
The test system of assay [17] is TK-10 renal.
Assay [18] concerns KM12 colon.
The test system of assay [19] is UACC-62 melanoma.
In assay [20] the test system is HCT-116 colon.

Consider `NC(CCC(=O)NC(CSCC1C(=O)Nc2ccccc21)C(=O)NCC(=O)O)C(=O)O` (stereo not drawn), for which the TGI in assay [1] was above 23.3 µM; in assay [2] it was 18.3 µM; in [3], 37.2 µM; in assay [4], 14.8 µM; in [5], 38.6 µM; in [6] it was 10.5 µM. Besides, the TGI stood at 18.9 µM in assay [7]; 2.51 µM in assay [8]; 8.2 µM in [9]; 17.5 µM in [10]; 14.5 µM in assay [11]; 10.6 µM in assay [12]. Besides, the TGI in [13] is 31.2 µM; in assay [14] it was 31.1 µM; in [15] it was 15.5 µM; in [16], above 100 µM; in [17] it was 18.9 µM; in [18] it was above 32.9 µM. For the same compound, the TGI in assay [19] worked out at 23.6 µM; in [20], 9.27 µM.
On to `O=[N+]([O-])/C(C(Cl)=C(Cl)Cl)=C(\N1CCCCC1)n1cncn1`, for which the TGI in assay [1] stood at 38.3 µM; in assay [2] it was 29.7 µM; in assay [3], 72.1 µM; in assay [4] it was 36.3 µM; in [5], 37.7 µM; in assay [6], 30.3 µM. In addition, the TGI in [7] is 30.1 µM; in assay [8], above 100 µM; in [9], 49.4 µM; in [10], 50.6 µM; in [11], 37.5 µM; in assay [12], 40.5 µM. Besides, the TGI in assay [13] was 31.6 µM; in [14] it was 32.1 µM; in assay [15], 26.9 µM; in assay [16] it was 33.6 µM; in assay [17], 33.2 µM; in [18], 40.8 µM. The TGI in assay [19] worked out at 33 µM; in [20] it was 73.6 µM.
`NNC(=O)CSc1nc2ccccc2c(=O)n1N`: the TGI in assay [1] is above 100 µM; in assay [2] it was 89.3 µM; in [3], above 100 µM; in assay [4], above 100 µM; in assay [6] it was above 100 µM; in [7], 61.2 µM. Further, the TGI in assay [8] is above 100 µM; in assay [9], 33 µM; in assay [10], above 100 µM; in [11] it was above 100 µM; in assay [12], above 100 µM; in [13] it was above 100 µM. For the same compound, the TGI was above 100 µM in [14]; above 100 µM in assay [15]; 44.6 µM in [16]; 40.9 µM in assay [17]; above 100 µM in [18]; above 100 µM in assay [19]. The compound further gave a TGI in assay [20] above 100 µM.
In the case of `O=C(O)c1ccc(OCc2nc3cc(C(F)(F)F)ccc3nc2-c2ccccc2)cc1`, the TGI in assay [1] was above 100 µM; in [2], above 100 µM; in assay [3], above 100 µM; in assay [4] it was above 100 µM; in [5] it was above 100 µM; in [6], 37.8 µM. The TGI was above 100 µM in assay [7]; above 100 µM in assay [8]; 98.7 µM in [9]; above 100 µM in assay [10]; above 100 µM in [11]; above 100 µM in assay [12]. Also, the TGI in assay [13], in [14], in [15], in assay [16], in assay [17] and in assay [18] was above 100 µM throughout. The TGI in assay [19] and in assay [20] was above 100 µM in each case.
Regarding `C=CCOc1ccc(C2(O)c3ccccc3C3=NCCCN32)cc1` (stereo not drawn), the TGI is above 74.6 µM in [1]; above 100 µM in assay [2]; above 100 µM in assay [3]; above 85.6 µM in assay [4]; above 100 µM in assay [5]; 43.5 µM in assay [6]. Also, the TGI is above 100 µM in [7]; above 78.8 µM in assay [8]; above 100 µM in assay [9]; above 100 µM in [10]; 59.3 µM in [11]; 43.3 µM in assay [12]. Also, the TGI in assay [13], in assay [14], in assay [15], in assay [16], in assay [17] and in [18] was above 100 µM throughout. Moreover, the TGI is above 57 µM in assay [19] and above 100 µM in assay [20].
As to `Oc1cccc(-c2nc3cc(F)ccc3s2)c1`, the TGI in assay [1] was found to be 14.2 µM; in [2] it was 76.7 µM; in [3], 55.4 µM; in [4] it was 58.5 µM; in assay [6], 30 µM; in assay [7], 51.6 µM. Further, the TGI in [8] was found to be 47.8 µM; in assay [9], 39.4 µM; in [10], 51.4 µM; in assay [11], 50.3 µM; in [12] it was 23.2 µM; in assay [13] it was 32.5 µM. Moreover, the TGI in assay [14] was 52.9 µM; in assay [15] it was 65.6 µM; in assay [16], 99 µM; in [17] it was 37.4 µM; in [18], 34.6 µM; in assay [19], 35.1 µM. In assay [20], this compound came in with a TGI of 53.8 µM.
As to `CC(=O)O[C@H]1CC[C@@]2(C)C(=CC[C@H]3[C@@H]4C[C@H](N5CCOCC5)[C@H](OC(C)=O)[C@@]4(C)CC[C@@H]32)C1`, the TGI in assay [1], in assay [2], in assay [3], in assay [4], in assay [5] and in assay [6] was above 100 µM in each case. In addition, the TGI in assay [7], in assay [8], in [9], in assay [10], in assay [11] and in [12] was above 100 µM each time. The TGI in [13], in assay [14], in assay [15], in assay [16], in assay [17] and in assay [18] was above 100 µM each time. The TGI in [19] and in assay [20] was above 100 µM each time.
For the compound `O=C1c2cccnc2-c2nccc3c2c1nc1cc(Br)ccc13`, the TGI came out at 0.848 µM in assay [1]; 0.288 µM in [2]; 0.304 µM in assay [3]; 0.607 µM in assay [4]; 0.362 µM in assay [5]; 2.12 µM in [6]. Besides, the TGI in assay [7] was determined as 0.876 µM; in [8], 0.0617 µM; in assay [9] it was 0.81 µM; in assay [10], 0.083 µM; in assay [11], 0.325 µM; in assay [12], 1.63 µM. Also, the TGI turned out to be 2.52 µM in assay [13]; 0.527 µM in assay [14]; 0.555 µM in assay [15]; 0.88 µM in assay [16]; 2.33 µM in [17]; 0.338 µM in assay [18]. The TGI was determined as 0.373 µM in assay [19] and 0.0762 µM in assay [20].
Take `CN1COCc2c1ccc1cc3ccc4c(c3nc21)COCN4S(C)(=O)=O`: the TGI in [1], in assay [2], in assay [3], in assay [4], in assay [5] and in assay [6] was above 100 µM each time. The TGI is above 100 µM in assay [7]; above 100 µM in assay [8]; 67.5 µM in assay [9]; above 100 µM in assay [10]; above 100 µM in assay [11]; above 100 µM in [12]. The TGI in assay [13], in assay [14], in assay [15], in assay [16], in [17] and in assay [18] was above 100 µM throughout. The TGI in assay [19] and in assay [20] was above 100 µM in each case.
Consider `CSc1cnc2ccccc2c1SC1CN(Cc2ccccc2)c2ccccc2C1=O` (stereo not drawn), for which the TGI in [1], in [2], in [3], in [4], in assay [5] and in [6] was above 100 µM each time. In addition, the TGI in assay [7], in assay [8], in assay [9], in [10], in assay [11] and in assay [12] was above 100 µM throughout. Moreover, the TGI in [13], in [14], in [15], in [16], in assay [17] and in assay [18] was above 100 µM throughout. In addition, the TGI in [19] and in assay [20] was above 100 µM each time.
In the case of `C=CC[C@]12C=C(OC)[C@@H](O)[C@](OC)(C(c3cc(OC)c4c(c3)OCO4)[C@H]1C)[C@H]2OC(C)=O` (stereo partly drawn), the TGI in [1], in assay [2], in assay [3], in [4], in assay [5] and in assay [6] was above 100 µM in each case. For the same compound, the TGI in [7], in assay [8], in assay [9], in assay [10], in assay [11] and in assay [12] was above 100 µM in each case. Also, the TGI in assay [13], in assay [14], in assay [15], in assay [16], in assay [17] and in [18] was above 100 µM in each case. Besides, the TGI in assay [19] and in assay [20] was above 100 µM in each case.
Take `C=C([C@@]1(O)C[C@H]2[C@H](CCC2(OC)OC)[C@@H]2c3ccccc3O[C@@H]21)[Si](C)(C)C`: the TGI in assay [1], in assay [2], in [3], in assay [4], in assay [5] and in assay [6] was above 100 µM throughout. The TGI in assay [7], in assay [8], in assay [9], in [10], in assay [11] and in assay [12] was above 100 µM throughout. The TGI in assay [13], in assay [14], in [15], in assay [16], in assay [17] and in assay [18] was above 100 µM throughout. The TGI in [19] and in [20] was above 100 µM in each case.
Consider `S=C(Nc1ccc2c(c1)oc1ccccc12)c1cccnc1`, for which the TGI in [1] was above 100 µM; in assay [2], 89.7 µM; in [3] it was above 100 µM; in [4], above 100 µM; in assay [5] it was 32.9 µM; in [6], above 100 µM. For the same compound, the TGI in assay [7] is above 100 µM; in assay [8], above 100 µM; in [9], 49.7 µM; in assay [10] it was above 100 µM; in assay [11], above 100 µM; in [12], above 100 µM. For the same compound, the TGI in assay [13] is above 100 µM; in assay [14] it was above 100 µM; in assay [15] it was 87.4 µM; in assay [16] it was 77.7 µM; in [17], above 100 µM; in assay [18], above 100 µM. Besides, the TGI in assay [19] and in [20] was above 100 µM throughout.
As for `COc1nc2nccnc2c(=O)n1C`, the TGI in [1], in assay [2], in [3], in assay [4], in assay [5] and in assay [6] was above 10 µM each time. Besides, the TGI in [7], in [8], in assay [9], in [10], in [11] and in [12] was above 10 µM throughout. Besides, the TGI in [13], in assay [14], in assay [15], in assay [16], in assay [17] and in [18] was above 10 µM in each case. Further, the TGI in [19] and in assay [20] was above 10 µM in each case.
